Results published in PubChem BioAssay (NCI).
“And” between values parts separate entries of the source, which are not always exact repeats. Equal entries are not always repeated.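 Following 48 hours of exposure in 96-well plates, responses at five concentrations were used to interpolate endpoints linearly. GI50 marks 50% less growth. At the TGI there is no net growth.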

How the values were obtained:
Assay in all cases: DTP human tumour cell line panel, 48 h
HOP-62 NSCLC = tested on: HOP-62 NSCLC
CCRF-CEM leukemia = tested on: CCRF-CEM leukemia
SK-MEL-28 melanoma = tested on: SK-MEL-28 melanoma
UACC-257 melanoma = tested on: UACC-257 melanoma
SF-539 CNS = tested on: SF-539 CNS
EKVX NSCLC = tested on: EKVX NSCLC
K-562 leukemia = tested on: K-562 leukemia
HCT-15 colon = tested on: HCT-15 colon
MOLT-4 leukemia = tested on: MOLT-4 leukemia
UACC-62 melanoma = tested on: UACC-62 melanoma

Structure (SMILES)	GI50 (HOP-62 NSCLC) [µM]	TGI (HOP-62 NSCLC)	GI50 (CCRF-CEM leukemia) [µM]	TGI (CCRF-CEM leukemia) [µM]	GI50 (SK-MEL-28 melanoma) [µM]	TGI (SK-MEL-28 melanoma) [µM]	GI50 (UACC-257 melanoma) [µM]	TGI (UACC-257 melanoma)	GI50 (SF-539 CNS) [µM]	TGI (SF-539 CNS) [µM]	GI50 (EKVX NSCLC) [µM]	TGI (EKVX NSCLC)	GI50 (K-562 leukemia) [µM]	TGI (K-562 leukemia) [µM]	GI50 (HCT-15 colon) [µM]	TGI (HCT-15 colon)	GI50 (MOLT-4 leukemia) [µM]	TGI (MOLT-4 leukemia) [µM]	GI50 (UACC-62 melanoma) [µM]	TGI (UACC-62 melanoma) [µM]
CC(C)COc1nc2c(c(=O)n(C)c(=O)n2C)n1C	> 100	> 100 µM	> 100	> 100	> 100	> 100	> 100	> 100 µM	> 100	> 100	> 100	> 100 µM	> 100	> 100	> 100	> 100 µM	> 100	> 100	> 100	> 100
O=C1C2C3CC(C4C5C=CC(C5)C34)C2C2C3CC(C12)C1C2C=CC(C2)C31 (configuration not stated)		> 100 µM		> 100		> 100		> 100 µM		> 100		> 100 µM		> 100		> 100 µM		> 100		> 100
CSc1nc2c(c(=O)n1C)CN(C1CCCCC1)C(=O)C(c1ccccc1)N2 (configuration not stated)	> 100	> 100 µM	11.3	> 100	17.1	83.3	38.2	> 100 µM	51.7	> 100	38.8	> 100 µM	4	> 100	16.1	> 100 µM	12.2	39	8.01	57.8
Clc1cccc(C2N3CCCCC3[C@@H]3c4[nH]c5ccccc5c4CCN23)c1 (some centres not stated)		> 100 µM		56.6		79.9		98.2 µM		57.7		> 100 µM		65.8		> 100 µM		60.5		30.7
CN1CCN(Cc2ccc(NC(=O)c3cncc(C#Cc4cnc(N)c5cccnc45)c3)cc2C(F)(F)F)CC1	0.498	> 19.1 µM	0.234	> 50	0.176	1.85	0.273	> 50 µM	0.288	1.78	1.36	> 50 µM	0.005	> 50	1.85	> 50 µM	0.214	> 50	0.182	0.956
NS(=O)(=O)c1cc(C(=O)O)c(O)c2ccccc12		> 100 µM		> 100		> 100		> 100 µM		> 100		> 100 µM		> 100		> 100 µM		> 100		> 100
O=C(/C=C/c1cccc([N+](=O)[O-])c1)c1ccc([N+](=O)[O-])cc1		> 100 µM		> 100		> 100		> 100 µM		> 100		> 100 µM		> 100		> 100 µM		> 100		> 100
O=c1c(Cl)c(Cl)cnn1CCCl		34.5 µM		4.84		4.99		6.58 µM		29.5		15.9 µM		5.18		6.79 µM		7.46		8.25
Cn1cc(-c2cnn3c(N)c(Br)c(C4CCCNC4)nc23)cn1 (configuration not stated)	6.69	> 100 µM	0.631	38.9	24.3	> 100	17.8	60.6 µM	0.285	3.88	10.4	70 µM	3.85	> 100	14.2	> 79.9 µM	0.575	23.2	8.9	28.8
COc1ccc([C@@]23Oc4cc(OC)cc(OC)c4[C@]2(O)[C@H](O)[C@H](C(N)=O)[C@H]3c2ccccc2)cc1		0.216 µM and 0.0916 µM		> 100	< 0.0116			0.206 µM and < 0.0304 µM		0.0193		0.108 µM and 0.158 µM		> 100	0.0177	0.33 µM and 0.229 µM		> 100	< 0.016	0.106
O=C(Nc1ccc(Cl)cc1Cl)OC(Cn1cncn1)c1ccc(Cl)cc1Cl (configuration not stated)		34.5 µM		> 100		30.1		30.9 µM		32.5		31.5 µM		> 100		31.1 µM		> 100		28.1
CC[C@@H](C)/C=C(C)/C=C/C(=O)c1c(O)c(-c2ccc(O)cc2)cn(O)c1=O	0.492	14.7 µM	0.314	13.1	0.674	19.2	0.317	6.95 µM	0.369	5.83	1.6	13.1 µM	0.392	> 41.2	0.396	16.1 µM	0.31	15.7	0.266	0.966
CCCCCC/C=C\CCCCCCCCCC1=C(CN2CCN(C)CC2)C(=O)C=C(OC)C1=O		30.7 µM		1.95		28.2		28.6 µM		40.1		27.9 µM		6.32		7.87 µM		1.65		25.5
COc1c(-c2ccccc2)nc2ccc(Oc3ccccc3)nn12		> 100 µM		99.3		99.5		> 96.5 µM		> 100		> 100 µM		> 100		> 100 µM		> 64.7		> 100
CC(=O)[CH-]C(=O)c1ccccc1.CC(=O)[CH-]C(=O)c1ccccc1.CC(=O)[CH-]C(=O)c1ccccc1.[Nd+3].[OH3+]	31.9	> 100 µM	9.7	> 100	66.9	> 100	52.1	> 100 µM	52.9	> 100	60.9	> 100 µM	42.6	> 100	42	> 100 µM	28.4	> 100	45.5	> 100
O=C1c2ccccc2C2CCC1c1ccccc12 (configuration not stated)		> 100 µM		> 100		> 100		76.6 µM		> 100		> 100 µM		> 100		> 100 µM		45.7		> 100
